US20250002455A1, “NEW N-PHENYLPYRROLAMIDE INHIBITORS OF DNA GYRASE AND TOPOISOMERASE IV WITH ANTIBACTERIAL ACTIVITY” (priority 2020, published 2025)
≈ marks a conversion by molar mass, not a printed value. Like-named read-outs stand apart in the source and are kept apart here.

Tests used:
E. coli ATCC 25922 = assay: Microbroth dilution MIC (CLSI); format: cell-based; settings: Escherichia coli, ATCC25922; E. coli ATCC 25922; read-out: MIC
Experimental: (§1) The chemical entities described in the present invention were assessed for their antimicrobial activity using a microbroth dilution assay as recommended by the CLSI (Methods for Dilution Antimicrobial Susceptibility Tests for Bacteria That Grow Aerobically, and Methods for Antimicrobial Susceptibility Testing of Anaerobic Bacteria, Clinical and Laboratory Standards Institute, Document M07-A8, and M11-A8, Wayne, PA 19087, USA, 2012.). Compounds were dissolved by using 100% DMSO. Serial two-fold dilutions of each compound were made by using 100% DMSO as the diluent.
(§2) A library of Gram-negative and Gram-positive microbes and their drug- and multidrug-resistant variants were employed as test organisms. The MIC (minimum inhibitory concentration) was determined as the lowest concentration of an individual drug that lead to no visible growth.

E. faecium ATCC 700221 = assay: Microbroth dilution MIC (CLSI); format: cell-based; settings: Enterococcus faecium, ATCC700221
Experimental: as §1, §2

K. pneumoniae ATCC 10031 = assay: Microbroth dilution MIC (CLSI); format: cell-based; settings: Klebsiella pneumoniae, ATCC10031; K. pneumoniae ATCC 10031; read-out: MIC
Experimental: as §1, §2

S. aureus ATCC 29213 = assay: Microbroth dilution MIC (CLSI); format: cell-based; settings: Staphylococcus aureus, ATCC29213; S. aureus ATCC 29213; read-out: MIC
Experimental: as §1, §2

A. baumannii ATCC 17978 = assay: Microbroth dilution MIC (CLSI); format: cell-based; settings: Acinetobacter baumannii, ATCC17978; A. baumannii ATCC 17978; read-out: MIC
Experimental: as §1, §2

[1] = system: E. spp. cloacae ATCC 13047; assay: Microbroth dilution MIC (CLSI); format: cell-based; settings: Enterobacter cloacae, ATCC13047; E. spp. cloacae ATCC 13047; read-out: MIC
Experimental: as §1, §2

E. faecalis ATCC 29212 = assay: Microbroth dilution MIC (CLSI); format: cell-based; settings: Enterococcus faecalis, ATCC29212; E. faecalis ATCC 29212; read-out: MIC
Experimental: as §1, §2

[2] = system: S. aureus ATCC 43300 (MRSA); assay: Microbroth dilution MIC (CLSI); format: cell-based; settings: Staphylococcus aureus
Experimental: as §1, §2

P. aeruginosa ATCC 27853 = assay: Microbroth dilution MIC (CLSI); format: cell-based; settings: Pseudomonas aeruginosa, ATCC27853; P. aeruginosa ATCC 27853; read-out: MIC
Experimental: as §1, §2

[3] = system: S. aureus ATCC 700699 (VISA); assay: Microbroth dilution MIC (CLSI); format: cell-based; settings: Staphylococcus aureus
Experimental: as §1, §2

E. coli topoisomerase IV = biological target: T1, E. coli topoisomerase IV (Escherichia coli, UniProt P20083); assay: biochemical; settings: E. coli topo IV; 10 μM compound; read-out: RA (residual activity of the enzyme)
T1 construct: purchased Inspiralis
T1 sequence (P0AFI2 whole entry): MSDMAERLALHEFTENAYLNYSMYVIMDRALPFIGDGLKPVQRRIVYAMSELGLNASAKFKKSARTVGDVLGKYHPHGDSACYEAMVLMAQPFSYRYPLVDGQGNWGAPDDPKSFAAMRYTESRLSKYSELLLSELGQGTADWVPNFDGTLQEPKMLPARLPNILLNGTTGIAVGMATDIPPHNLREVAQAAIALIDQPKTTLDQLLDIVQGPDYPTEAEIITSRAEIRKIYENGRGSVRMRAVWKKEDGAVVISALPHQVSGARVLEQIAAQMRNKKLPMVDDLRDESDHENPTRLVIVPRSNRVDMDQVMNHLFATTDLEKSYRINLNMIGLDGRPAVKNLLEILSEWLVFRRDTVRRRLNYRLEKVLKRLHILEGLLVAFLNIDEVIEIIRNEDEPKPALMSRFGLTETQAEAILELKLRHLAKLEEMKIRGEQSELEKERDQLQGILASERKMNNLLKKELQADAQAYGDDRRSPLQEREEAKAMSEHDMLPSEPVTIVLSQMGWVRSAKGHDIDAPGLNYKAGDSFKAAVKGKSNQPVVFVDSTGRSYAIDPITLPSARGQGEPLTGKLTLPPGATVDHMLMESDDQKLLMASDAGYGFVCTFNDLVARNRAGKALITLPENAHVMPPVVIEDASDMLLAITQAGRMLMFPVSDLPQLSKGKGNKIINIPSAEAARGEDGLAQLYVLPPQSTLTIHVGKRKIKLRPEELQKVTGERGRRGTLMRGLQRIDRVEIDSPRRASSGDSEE
T1 sequence (P20083 whole entry): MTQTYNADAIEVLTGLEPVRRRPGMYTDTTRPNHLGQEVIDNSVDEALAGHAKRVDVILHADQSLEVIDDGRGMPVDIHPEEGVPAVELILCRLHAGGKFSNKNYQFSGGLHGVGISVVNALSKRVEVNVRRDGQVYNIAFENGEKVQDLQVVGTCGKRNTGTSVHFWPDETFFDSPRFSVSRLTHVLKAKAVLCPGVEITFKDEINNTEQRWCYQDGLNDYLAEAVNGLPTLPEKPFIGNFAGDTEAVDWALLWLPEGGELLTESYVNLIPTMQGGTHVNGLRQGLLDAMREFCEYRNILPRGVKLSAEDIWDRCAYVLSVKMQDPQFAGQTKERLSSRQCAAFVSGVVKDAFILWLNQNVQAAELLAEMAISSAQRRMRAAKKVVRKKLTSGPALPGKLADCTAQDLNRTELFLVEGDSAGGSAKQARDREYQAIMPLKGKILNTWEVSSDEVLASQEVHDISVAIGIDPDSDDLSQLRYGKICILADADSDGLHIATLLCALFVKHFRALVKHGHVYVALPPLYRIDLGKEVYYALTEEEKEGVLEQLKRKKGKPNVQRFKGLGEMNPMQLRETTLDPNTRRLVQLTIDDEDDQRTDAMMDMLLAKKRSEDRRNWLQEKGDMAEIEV
Experimental: Inhibitory activities for compounds of the present invention were determined on E. coli and S. aureus DNA gyrase and topoisomerase IV in an assay from Inspiralis on streptavidin-coated 96-well microtiter plates from Thermo scientific Pierce. […] After washing off the unbound oligonucleotide, the enzyme test was performed. […] Reaction solutions were incubated at 37° C. for 30 min. After that, the TF buffer (50 mM NaOAc with pH 5.0, 50 mM NaCl and 50 mM MgCl2) was added to terminate the enzymatic reaction. After additional incubation for 30 min at rt, during which biotin-oligonucleotide-plasmid triplex was formed, the unbound plasmid was washed off using TF buffer and SybrGOLD in T10 buffer (10 mM Tris HCl with pH 8.0 and 1 mM EDTA) was added. […] Initial screening was done at 100 or 10 nM concentration of inhibitors against E. coli DNA gyrase or 1 μM or 100 nM concentration against S. aureus DNA gyrase and E. coli and S. aureus topo IV. […] GraphPad Prism 6.0 software was used to calculate the IC50 values. The result is given as the average value of three independent measurements. […] Chemoth.

E. coli DNA gyrase = biological target: T2, E. coli DNA gyrase (Escherichia coli, UniProt P0AES6); assay: biochemical; settings: E. coli DNA gyrase; for IC50: read-out: IC50
T2 construct: purchased Inspiralis
Experimental: Inhibitory activities for compounds of the present invention were determined on E. coli and S. aureus DNA gyrase and topoisomerase IV in an assay from Inspiralis on streptavidin-coated 96-well microtiter plates from Thermo scientific Pierce. […] After washing off the unbound oligonucleotide, the enzyme test was performed. […] Reaction solutions were incubated at 37° C. for 30 min. After that, the TF buffer (50 mM NaOAc with pH 5.0, 50 mM NaCl and 50 mM MgCl2) was added to terminate the enzymatic reaction. After additional incubation for 30 min at rt, during which biotin-oligonucleotide-plasmid triplex was formed, the unbound plasmid was washed off using TF buffer and SybrGOLD in T10 buffer (10 mM Tris HCl with pH 8.0 and 1 mM EDTA) was added. […] GraphPad Prism 6.0 software was used to calculate the IC50 values. The result is given as the average value of three independent measurements. […] Chemoth.

[4] = E. faecium ATCC 700221, read-out: MIC
[5] = S. aureus ATCC 43300 (MRSA), read-out: MIC
[6] = S. aureus ATCC 700699 (VISA), read-out: MIC

SMILES | MIC (E. coli ATCC 25922) [µg/mL] | MIC (E. faecium ATCC 700221; [4]) [µg/mL] | MIC (K. pneumoniae ATCC 10031) [µg/mL] | MIC (S. aureus ATCC 29213) [µg/mL] | MIC (A. baumannii ATCC 17978) [µg/mL] | MIC [1] [µg/mL] | MIC (E. faecalis ATCC 29212) [µg/mL] | MIC [2, 5] [µg/mL] | MIC (P. aeruginosa ATCC 27853) [µg/mL] | MIC [3, 6] [µg/mL] | remaining activity at 10 µM (E. coli topoisomerase IV) [%] | IC50 (E. coli DNA gyrase) [nM] | remaining activity at 10 pM (E. coli DNA gyrase; 0.01 nM compound, read-out: RA (residual activity of the enzyme)) [%] | remaining activity at 0.0001 µM (E. coli DNA gyrase; 0.1 nM compound, read-out: RA (residual activity of the enzyme)) [%] | MIC (E. faecium ATCC 700221) [µg/mL] | MIC [2] [µg/mL] | MIC [3] [µg/mL]
Cc1[nH]c(C(=O)Nc2ccc(-c3n[nH]c(=O)o3)cc2OCc2ccccc2)c(Cl)c1Cl [Example 11, N-(2-(Benzyloxy)-4-(5-oxo-4,5-dihydro-1,3,4-oxadiazol-2-yl)phenyl)-3,4-dichloro-5-methyl-1H-pyrrole-2-carboxamide] | ≥ 32 | ≥ 32 | ≥ 32 | ≥ 32 | ≥ 32 | ≥ 32 | ≥ 32 | ≥ 32 | ≥ 32 | ≥ 32 | 106 | 886 |  |  |  |  | 
Cc1[nH]c(C(=O)Nc2ccc(-n3nn[nH]c3=O)cc2N2Cc3ccccc3C2)c(Cl)c1Cl [Example 25, 3,4-Dichloro-N-(2-(isoindolin-2-yl)-4-(5-oxo-4,5-dihydro-1H-tetrazol-1-yl)phenyl)-5-methyl-1H-pyrrole-2-carboxamide] | > 64 | 0.5 (≈ 1.06 µM) | > 64 | 16 (≈ 34 µM) | > 64 | > 64 | 0.25 (≈ 0.532 µM) | > 64 | > 64 | > 64 | 105 |  | 73 | 26 |  |  | 
Cc1[nH]c(C(=O)Nc2ccc(-c3noc(=O)[nH]3)cc2N2CCNCC2)c(Cl)c1Cl [Example 5, 4-(2-(3,4-Dichloro-5-methyl-1H-pyrrole-2-carboxamido)-5-(5-oxo-4,5-dihydro-1,2,4-oxadiazol-3-yl)phenyl)piperazin-1-ium chloride] | > 64 |  | > 64 | > 64 | > 64 | > 64 | > 64 |  | > 64 |  |  | 6.07 |  |  | > 64 | > 64 | > 64
Cc1[nH]c(C(=O)Nc2ccc(-c3noc(=O)[nH]3)cc2N2CCN(c3ccccc3)CC2)c(Cl)c1Cl [Example 7, 3,4-Dichloro-5-methyl-N-(4-(5-oxo-4,5-dihydro-1,2,4-oxadiazol-3-yl)-2-(4-phenylpiperazin-1-yl)phenyl)-1H-pyrrole-2-carboxamide] | > 64 | 4 (≈ 7.79 µM) | > 64 | 4 (≈ 7.79 µM) | > 64 | > 64 | 0.125 (≈ 0.243 µM) | 0.0625 (≈ 0.122 µM) | > 64 | 2 (≈ 3.9 µM) |  | 109 |  |  |  |  | 
Cc1[nH]c(C(=O)Nc2ccc(-c3n[nH]c(=O)o3)cc2OC2CCNCC2)c(Cl)c1Cl.Cl [Example 27, 4-(2-(3,4-Dichloro-5-methyl-1H-pyrrole-2-carboxamido)-5-(5-oxo-4,5-dihydro-1,3,4-oxadiazol-2-yl)phenoxy)piperidin-1-ium chloride] | ≥ 32 | 8 | 0.125 | 16 | ≥ 32 | ≥ 32 | > 64 | 8 | ≥ 32 | ≥ 64 |  | 2.26 |  |  |  |  | 
Cc1[nH]c(C(=O)Nc2ccc(-c3n[nH]c(=O)o3)cc2NC2CCNCC2)c(Cl)c1Cl.Cl [Example 19, 4-((2-(3,4-Dichloro-5-methyl-1H-pyrrole-2-carboxamido)-5-(5-oxo-4,5-dihydro-1,3,4-oxadiazol-2-yl)phenyl)amino)piperidin-1-ium chloride] | > 64 | > 64 | 2 | > 64 | > 64 | > 64 | > 64 | > 64 | > 64 | > 64 |  | 4.4 |  |  |  |  | 
